Each compound was assayed against E3 ubiquitin-protein ligase CBL-B (Homo sapiens, UniProt Q13191) (assay: Binding affinity to Cbl-b (unknown origin) assessed as inhibition constant incubated for 60 mins by TR-FRET assay).
Sequence of E3 ubiquitin-protein ligase CBL-B (Q13191 whole entry): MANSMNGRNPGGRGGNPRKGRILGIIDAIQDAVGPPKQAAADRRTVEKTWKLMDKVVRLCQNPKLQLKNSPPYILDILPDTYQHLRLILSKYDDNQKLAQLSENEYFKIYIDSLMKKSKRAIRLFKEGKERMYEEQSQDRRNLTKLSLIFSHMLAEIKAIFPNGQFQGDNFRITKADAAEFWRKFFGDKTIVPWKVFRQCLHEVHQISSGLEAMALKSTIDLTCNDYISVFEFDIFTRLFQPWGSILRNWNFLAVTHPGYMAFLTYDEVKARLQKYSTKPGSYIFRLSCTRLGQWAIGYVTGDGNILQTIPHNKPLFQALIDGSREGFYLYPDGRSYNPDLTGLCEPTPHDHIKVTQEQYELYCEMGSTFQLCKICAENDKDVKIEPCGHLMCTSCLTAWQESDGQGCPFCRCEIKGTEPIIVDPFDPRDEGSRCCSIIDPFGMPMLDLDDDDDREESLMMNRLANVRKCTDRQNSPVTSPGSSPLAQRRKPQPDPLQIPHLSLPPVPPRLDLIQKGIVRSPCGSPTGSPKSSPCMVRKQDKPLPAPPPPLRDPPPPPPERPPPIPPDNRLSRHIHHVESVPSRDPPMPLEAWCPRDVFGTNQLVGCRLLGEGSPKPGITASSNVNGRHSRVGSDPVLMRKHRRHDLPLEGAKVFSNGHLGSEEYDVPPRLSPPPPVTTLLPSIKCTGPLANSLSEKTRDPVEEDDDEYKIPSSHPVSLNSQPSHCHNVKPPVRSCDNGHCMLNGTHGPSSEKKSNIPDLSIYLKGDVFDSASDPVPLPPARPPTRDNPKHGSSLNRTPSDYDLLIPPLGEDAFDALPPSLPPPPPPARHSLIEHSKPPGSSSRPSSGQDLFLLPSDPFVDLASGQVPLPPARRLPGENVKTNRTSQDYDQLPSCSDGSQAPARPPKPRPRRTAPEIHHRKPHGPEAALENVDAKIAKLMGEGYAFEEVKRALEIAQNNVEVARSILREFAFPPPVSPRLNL

Row | Structure (SMILES) | Ki [nM]
1 | CCN(Cc1cc2c(C(F)(F)F)cn(-c3cccc(C4(c5nncn5C)CCC4)c3)c(=O)c2[nH]1)CC(C)C | 2.87
2 | CO[C@H]1C[C@@](c2cccc(-n3cc(C(F)(F)F)c4cc(CNC5(C)CCC5)[nH]c4c3=O)c2)(c2nncn2C)C1 | 1.4
3 | Cn1cnnc1C1(c2cccc(-n3cc(C(F)(F)F)c4cc(CN5CCCC6(CC6)C5)[nH]c4c3=O)c2)CCC1 | 1.82
4 | Cn1cnnc1C1(c2cccc(-n3cc(C(F)(F)F)c4cc(CN5CCC[C@H]6C[C@H]65)[nH]c4c3=O)c2)CCC1 | 2
5 | Cn1cnnc1[C@]1(c2cccc(-n3cc(C(F)(F)F)c4cc(CNC5(C)CCC5)[nH]c4c3=O)c2)C[C@H](C)C1 | 0.86
6 | C[C@H]1CCCN(Cc2cc3c(C(F)(F)F)cn(-c4cccc(C5(c6nncn6C)COC5)c4)c(=O)c3[nH]2)C1 | 5.29
7 | Cn1cnnc1[C@]1(c2cccc(-n3cc(C(F)(F)F)c4cc(CN5CCCC6(CC6)C5)[nH]c4c3=O)c2)C[C@H](C)C1 | 1.32
8 | CO[C@H]1C[C@@](c2cccc(-n3cc(C(F)(F)F)c4cc(CN5CCCC6(CC6)C5)[nH]c4c3=O)c2)(c2nncn2C)C1 | 2.29
9 | CCN(Cc1cc2c(C(F)(F)F)cn(-c3cccc([C@]4(c5nncn5C)C[C@@H](C)C4)c3)c(=O)c2[nH]1)CC(C)C | 1.57
10 | C[C@H]1CCCN(Cc2cc3c(S(C)(=O)=O)cn(-c4cccc(C5(Cc6nncn6C)COC5)c4)c(=O)c3[nH]2)C1 | 14.2
11 | C[C@H]1CCCN(Cc2cc3c(C4CC4)cn(-c4cccc(C5(C(F)c6nncn6C)CC(F)(F)C5)c4)c(=O)c3[nH]2)C1 (stereo partly specified) | 2.34
12 | CO[C@H]1C[C@](c2cccc(-n3cc(C(F)(F)F)c4cc(CNC5(C)CCC5)[nH]c4c3=O)c2)(c2nncn2C)C1 | 2.34
13 | C[C@H]1CCCN(Cc2cc3c(C4CC4)cn(-c4cccc(C5(c6nncn6C)CC6(CC6)C5)c4)c(=O)c3[nH]2)C1 | 1.58
14 | Cn1cnnc1[C@]1(c2cccc(-n3cc(C(F)(F)F)c4cc(CN5CC6CC6C5)[nH]c4c3=O)c2)C[C@H](C)C1 (stereo partly specified) | 0.86
15 | C[C@H]1CCCN(Cc2cc3c(C(F)(F)F)cn(-c4cccc([C@]5(c6nncn6C)C[C@@H](F)C5)c4)c(=O)c3[nH]2)C1 | 1.25
16 | C/C=C1\C[C@@](c2cccc(-n3cc(C(F)(F)F)c4cc(CN5CCC[C@H](C)C5)[nH]c4c3=O)c2)(c2nncn2C)C1 (stereo partly specified) | 2.89
17 | C[C@H]1CCCN(Cc2cc3c(C(F)(F)F)cn(-c4cccc([C@]5(c6nncn6C)C[C@H](F)C5)c4)c(=O)c3[nH]2)C1 | 1.41
18 | C[C@H]1CCCN(Cc2cc3c(C(F)(F)F)cn(-c4cccc(C5(Cc6nncn6C)CC(F)(F)C5)c4)c(=O)c3[nH]2)C1 | 0.74
19 | C[C@H]1CCCN(Cc2cc3c(C(F)(F)F)cn(-c4cccc(C5(Cc6nncn6C)COC5)c4)c(=O)c3[nH]2)C1 | 1.98
20 | CO[C@H]1C[C@](c2cccc(-n3cc(C(F)(F)F)c4cc(CN5CCC[C@H](C)C5)[nH]c4c3=O)c2)(c2nncn2C)C1 | 1.68
21 | CCN(CC)Cc1cc2c(C(F)(F)F)cn(-c3cccc([C@]4(c5nncn5C)C[C@@H](C)C4)c3)c(=O)c2[nH]1 | 0.97
22 | C[C@H]1CCCN(Cc2cc3c(C4CC4)cn(-c4cccc(C5(Cc6nncn6C)CC(F)(F)C5)c4)c(=O)c3[nH]2)C1 | 1.68
23 | Cn1cnnc1C1(c2cccc(-n3cc(C(F)(F)F)c4cc(CN5CCC[C@@H]6C[C@@H]65)[nH]c4c3=O)c2)CCC1 | 4.19
24 | C[C@H]1CCCN(Cc2cc3c(C(F)(F)F)cn(-c4cccc(C5(c6nncn6C)CCC5)c4)c(=O)c3[nH]2)C1 | 1.02
25 | CCN(CC)Cc1cc2c(C(F)(F)F)cn(-c3cccc(C4(c5nncn5C)CCC4)c3)c(=O)c2[nH]1 | 2.58
26 | CO[C@H]1C[C@@](c2cccc(-n3cc(C(F)(F)F)c4cc(CN5CC6CCC(C6)C5)[nH]c4c3=O)c2)(c2nncn2C)C1 | 0.82

Row | Structure (SMILES) | Ki [nM]
27 | C[C@H]1CCCN(Cc2cc3c(C4CC4)cn(-c4cccc([C@@H](c5nncn5C)C5CCC5)c4)c(=O)c3[nH]2)C1 | 38.2
28 | Cc1cn(-c2cccc(C3(Cc4nncn4C)COC3)c2)c(=O)c2[nH]c(CN3CCC[C@H](C)C3)cc12 | 2.36
29 | CO[C@H]1C[C@](c2cccc(-n3cc(C(F)(F)F)c4cc(CN5CC6CCC(C6)C5)[nH]c4c3=O)c2)(c2nncn2C)C1 | 5.43
30 | CO[C@H]1C[C@](c2cccc(-n3cc(C(F)(F)F)c4cc(CN5CCCC6(CC6)C5)[nH]c4c3=O)c2)(c2nncn2C)C1 | 9.3
31 | Cn1cnnc1[C@]1(c2cccc(-n3cc(C(F)(F)F)c4cc(CN5CC6CCC(C6)C5)[nH]c4c3=O)c2)C[C@H](C)C1 | 1.74
32 | C[C@H]1CCCN(Cc2cc3c(C(F)(F)F)cn(-c4cccc([C@H](c5nncn5C)C5CCC5)c4)c(=O)c3[nH]2)C1 | 0.83
33 | Cn1cnnc1C1(c2cccc(-n3cc(C(F)(F)F)c4cc(CN5CC6CC6C5)[nH]c4c3=O)c2)CCC1 (stereo unspecified) | 2.34
34 | C[C@H]1CCCN(Cc2cc3c(C4CC4)cn(-c4cccc(C5(Cc6nncn6C)COC5)c4)c(=O)c3[nH]2)C1 | 1.43
35 | CO[C@H]1C[C@@](c2cccc(-n3cc(C(F)(F)F)c4cc(CN5CCC[C@H](C)C5)[nH]c4c3=O)c2)(c2nncn2C)C1 | 1.39
36 | C[C@H]1CCCN(Cc2cc3c(C(F)(F)F)cn(-c4cccc(C5(c6nncn6C)CC6(CC6)C5)c4)c(=O)c3[nH]2)C1 | 0.8
37 | C[C@H]1CCCN(Cc2cc3c(C(F)(F)F)cn(-c4cccc([C@]5(c6nncn6C)C[C@@H](OC(F)(F)F)C5)c4)c(=O)c3[nH]2)C1 | 1.34
38 | Cn1cnnc1[C@]1(c2cccc(-n3cc(C(F)(F)F)c4cc(CN5CCC[C@H]6C[C@H]65)[nH]c4c3=O)c2)C[C@H](C)C1 | 1.16
39 | CC[C@H]1C[C@](c2cccc(-n3cc(C(F)(F)F)c4cc(CN5CCC[C@H](C)C5)[nH]c4c3=O)c2)(c2nncn2C)C1 | 1.22
40 | C[C@H]1CCCN(Cc2cc3c(C(F)(F)F)cn(-c4cccc([C@]5(c6nncn6C)C[C@H](OC(F)(F)F)C5)c4)c(=O)c3[nH]2)C1 | 1.54
41 | C[C@H]1CCCN(Cc2cc3ccn(-c4cccc(C5(Cc6nncn6C)COC5)c4)c(=O)c3[nH]2)C1 | 18
42 | C[C@H]1CCCN(Cc2cc3c(Br)cn(-c4cccc(C5(Cc6nncn6C)COC5)c4)c(=O)c3[nH]2)C1 | 2.79
43 | CC[C@H]1C[C@@](c2cccc(-n3cc(C(F)(F)F)c4cc(CN5CCC[C@H](C)C5)[nH]c4c3=O)c2)(c2nncn2C)C1 | 1.14
44 | Cn1cnnc1C1(c2cccc(-n3cc(C(F)(F)F)c4cc(CNC5(C)CCC5)[nH]c4c3=O)c2)CCC1 | 1.13
45 | C[C@H]1CCCN(Cc2cc3c(C(F)(F)F)cn(-c4cccc([C@@H](c5nncn5C)C5CCC5)c4)c(=O)c3[nH]2)C1 | 3.67
46 | Cn1cnnc1[C@]1(c2cccc(-n3cc(C(F)(F)F)c4cc(CN5CCC[C@@H]6C[C@@H]65)[nH]c4c3=O)c2)C[C@H](C)C1 | 1.81
47 | C[C@H]1CCCN(Cc2cc3c(C(F)(F)F)cn(-c4cccc(-c5ccccc5-c5nncn5C)c4)c(=O)c3[nH]2)C1 | 7.04
48 | C[C@H]1CCCN(Cc2cc3c(C(F)(F)F)cn(-c4cccc(C5(c6nncn6C)CC(F)(F)C5)c4)c(=O)c3[nH]2)C1 | 1.18
49 | CO[C@H]1C[C@@](c2cccc(-n3cc(C(F)(F)F)c4cc(CN5CC6CC6C5)[nH]c4c3=O)c2)(c2nncn2C)C1 (stereo partly specified) | 3.01
50 | C[C@H]1CCCN(Cc2cc3c(C4CC4)cn(-c4cccc([C@H](c5nncn5C)C5CCC5)c4)c(=O)c3[nH]2)C1 | 1.4
51 | CO[C@H]1C[C@](c2cccc(-n3cc(C(F)(F)F)c4cc(CN5CC6CC6C5)[nH]c4c3=O)c2)(c2nncn2C)C1 (stereo partly specified) | 5.45
